Measurements from article PMC12250129, “Exploring the Therapeutic Potential of ^177Lu-PSMA-617 in a Mouse Model of Prostate Cancer Bone Metastases” (International Journal of Molecular Sciences, 2025).

Tests used:
PSMA-negative PC-3 cells = experiment: Cell surface binding and internalization, PC-3 cells; format: cell-based, human
Experimental: Cell surface binding and internalization experiments were performed with ^177Lu-PSMA-617 using PSMA-positive LNCaP cells and PSMA-negative PC-3 cells in order to determine if the uptake of ^177Lu-PSMA-617 was PSMA-specific. For this purpose, cells were seeded in 24-well plates (10^5 cells in 1 mL of the RPMI medium/well), allowing adhesion and growth overnight at 37 °C. After the removal of the supernatant, cells were washed once with PBS prior to the addition of the RPMI medium without supplements, followed by the addition of the radiolabeled ^177Lu-PSMA-617 (in MBq/nmol) to each well. The well plates were incubated at 37 °C for 1, 2, and 4 h, respectively. The cells were washed three times with ice-cold PBS to determine the total uptake of ^177Lu-PSMA-617. The internalized fraction of ^177Lu-PSMA-617 was determined in cells which were washed with ice-cold PBS, then incubated for 10 min with acidic stripping buffer (50 mM glycine, pH 2.8) followed by an additional washing step with ice-cold PBS. Cell samples were lysed by the addition of NaOH (1 N, 1 mL) to each well. The samples of the cell suspensions were measured in a γ-counter (PerkinElmer, Waltham, MA, USA).

[1] = system: bone metastases of LNCaP-luc prostate cancer; experiment: Biodistribution in mice with bone metastases of LNCaP-luc prostate cancer (gamma counter); format: in vivo, mouse
Experimental: An in vivo imaging system was used for bioluminescence imaging (BLI) to visualize ASID mice with bone metastases of LNCaP-luc prostate cancer before the administration of ^177Lu-PSMA-617 (Figure 4A). Subsequently, ^177Lu-PSMA-617 (~37 MBq of Lu-177) was administered intravenously to mice with bone metastases, and NanoSPECT/CT imaging was performed at 4, 24, and 48 h post-administration (Figure 4B). Additionally, the mice were sacrificed, and their organs and tissues were extracted for quantitative analysis using a gamma counter at 1, 4, 24, and 48 h after injection (Figure 4C).
LNCaP-luc cells were harvested from culture and resuspended to 2 × 10^7 cells/mL in PBS. The cells were combined with an equal volume of Matrigel (BD Biosciences, Bedford, MA, USA) such that 5 × 10^5 cells were prepared for injection into the right tibia of anesthetized (inhaled anesthetic of 1–2% isoflurane) ASID mice. Intratibial injections were performed using a 29-gauge, 0.5-inch needle inserted through the tibial plateau of the flexed knee as described previously. The tumor was imaged, detected, and measured using a Bruker Small Animal Optical Imaging System (In Vivo Xtreme; Billerica, MA, USA). Mice were anesthetized with a mixture of oxygen and isoflurane, then intraperitoneally injected with 100 μL of D-luciferin (Xenogen; 30 mg/mL in PBS).
Mice received an intravenous injection of ^177Lu-PSMA-617 (equivalent to 37 MBq of ^177Lu) at 45 days after tumor implantation. The NanoSPECT/CT (Mediso Medical Imaging Systems, Arlington, VA, USA) was used to image in vivo. After the administration of ^177Lu-PSMA-617, mice inhaled an anesthetic containing 1–2% isoflurane during imaging acquisition. SPECT and X-ray CT images were obtained at 1, 4, 24, and 48 h after injection. NanoSPECT imaging was acquired using nine multipinhole gamma detectors and high-resolution collimators. The energy window was set to […] ± 10%; the image size was set to 256 × 256, and the field of view of 60 mm × 100 mm was used. Mice received an intravenous injection of ^177Lu-PSMA-617 (equivalent to 37 MBq of ^177Lu) at 45 days after tumor implantation. The distribution of ^177Lu-PSMA-617 in the mice bearing tumors was evaluated by a gamma counter (PerkinElmer, Waltham, MA, USA). The mice were sacrificed by carbon dioxide euthanasia at 1, 4, 24, and 48 h after administration. The blood, tumor, and normal organ/tissue were collected, and the uptake of radioactivity was measured by a gamma counter. The distribution data obtained using radioactivity count methods are plotted as %ID/g.

[2] = system: bone metastasis of LNCaP/Luc prostate cancer; experiment: Therapeutic efficacy in mice with bone metastasis of LNCaP/Luc prostate cancer; format: in vivo, mouse; conditions: for median survival time: tail vein, day 0, control 26 days; for lifespan increase: vs control
Experimental: Therapeutic response monitoring was performed using bioluminescence imaging on days 3, 7, 15, and 30. […] The survival curves presented in Figure 6C further highlight the therapeutic effect. The median survival time for the control group (receiving normal saline) was 26 days, whereas mice treated with 1mCi (37 MBq) and 3mCi (111 MBq) of ^177Lu-PSMA-617 had median survival times of 34 days (p = 0.01) and 40 days (p = 0.02), respectively.
The mice were intratibially injected with LNCaP/Luc cells. After 45 days of tumor-implantation, the mice were assigned to three groups, including the saline control (n = 6), a low dose of ^177Lu-PSMA-617 (n = 8), and a high dose of ^177Lu-PSMA-617 (n = 9). The mice were administered via the tail vein with equivalent to 1mCi (37 MBq) and 3mCi (111 MBq) of ^177Lu-PSMA-617 on day 0. Body weight changes were measured during observation days. The death of mice was recorded for the survival curve by the Kaplan–Meier method. A humane endpoint was defined as a decrease in body weight of 20% or more compared with the body weight measured on the day of tumor inoculation. The survival rate of all groups was analyzed by the log-rank test, and p < 0.05 was considered significant difference. The median survival time was presented in efficacy studies. The median survival time was calculated as the smallest survival time for which the survivor function is less than or equal to 0.5. The therapeutic responses were monitored by bioluminescence imaging during observation days. The BNL/Luc tumor of mice was imaged and measured using the IVIS Imaging system and Living Imaging software (Xenogen, Alameda, CA, USA; available at https://www.perkinelmer.com) on days 3, 7, 15, and 30.

PSMA-positive tumors = system: PSMA-positive tumors; design: method as in PMID 31399803; conditions: single intravenous dose of 111 MBq; cited from earlier work
[3] = design: method as in PMID 25573634; conditions: over 96 h; cited from earlier work

**Q.** Which internalization (PSMA-negative PC-3 cells) does the source give for `O=C([O-])CN1CCN(CC(=O)[O-])CCN(CC(=O)NCC2CCC(C(=O)N[C@@H](Cc3ccc4ccccc4c3)C(=O)NCCCC[C@H](NC(=O)N[C@@H](CCC(=O)O)C(=O)O)C(=O)O)CC2)CCN(CC(=O)[O-])CC1.[177Lu+3]` (some centres unmarked) [^177Lu-PSMA-617] here?
**A.** Its internalization is < 0.1 % IA/10^6 cells.

**Q.** And the surface binding (PSMA-negative PC-3 cells)?
**A.** The surface binding was ≤ 1.7 % IA/10^6 cells.

**Q.** What about the tumor-to-blood ratio ([1]; 1 h post-injection) of the same compound?
**A.** The tumor-to-blood ratio was 69.5.

**Q.** What about the tumor-to-kidney ratio ([1]; 1 h post-injection) of the same compound?
**A.** Its tumor-to-kidney ratio is 0.3.

**Q.** What about the tumor-to-muscle ratio ([1]; 1 h post-injection) of the same compound?
**A.** Its tumor-to-muscle ratio is 60.2.

**Q.** And the uptake in kidneys ([1]; 1 h post-injection, i.v., ~37 MBq)?
**A.** Its uptake in kidneys is 43.83 ± 3.41 %IA/g.

**Q.** What about the “uptake in LNCaP tumors” value ([1]; 4 h post-injection, i.v., ~37 MBq) of the same compound?
**A.** Its value is 23.31 ± 0.94 %IA/g.

**Q.** What about the tumor-to-blood ratio ([1]; 24 h post-injection (maximum)) of the same compound?
**A.** Its tumor-to-blood ratio is 434.4.

**Q.** And the tumor-to-muscle ratio ([1]; 24 h post-injection (peak))?
**A.** The tumor-to-muscle ratio was 857.4.

**Q.** And the “uptake in LNCaP tumors” value ([1]; 24 h post-injection, i.v., ~37 MBq)?
**A.** Its value is 12.88 ± 0.55 %IA/g.

**Q.** What about the tumor-to-kidney ratio ([1]; 48 h post-injection (maximum)) of the same compound?
**A.** Its tumor-to-kidney ratio is 26.3.

**Q.** What about the “uptake in liver, lungs and spleen” value ([1]; i.v., ~37 MBq) of the same compound?
**A.** Its value is “low uptake”.

**Q.** And the urinary clearance ([1]; within 24 h)?
**A.** Its urinary clearance is > 90%.

**Q.** And the median survival time ([2]; 1mCi (37 MBq), p = 0.01)?
**A.** Its median survival time is 34 days.

**Q.** What about the lifespan increase ([2]; 1mCi (37 MBq)) of the same compound?
**A.** The lifespan increase was 30.7%.

**Q.** What about the median survival time ([2]; 3mCi (111 MBq), p = 0.02) of the same compound?
**A.** Its median survival time is 40 days.

**Q.** What about the lifespan increase ([2]; 3mCi (111 MBq)) of the same compound?
**A.** The lifespan increase was 53.8%.

**Q.** What about the “bioluminescence signal intensity vs controls” value ([2]; days 3, 7, 15 and 30 after treatment) of the same compound?
**A.** The value was “significantly lower signal intensities”.

**Q.** What about the median survival (PSMA-positive tumors) of the same compound?
**A.** Its median survival is 130 days.

**Q.** And the “stability in human serum” value [3]?
**A.** Its value is > 95%.
